# Values quoted from earlier work as cited in patent US10265547B2, “Internal ultrasound gel” (SmileSonica Inc., priority 2012, dated 2019).
# Experiments:
# [1] = average adult of 70 kg
# Streptococcus mutans = settings: xylitol in the range of 0.1% to 5%
# lactobacillus bulgaricus = settings: Makinen and Soderling 1981
# salmonella typhi = settings: Makinen and Soderling 1981
# Escherichia coli = settings: Makinen and Soderling 1981
# Streptococcus pneumonia = settings: nasopharyngeal flora, Kontiokari et al. 1995
# clostridium butyricum = settings: Makinen and Soderling 1981
# saccharomyces cerevisiae = settings: Makinen and Soderling 1981
SMILES,acceptable daily ingestion intake [1] [mg daily],reduction of oral bacterial flora (Streptococcus mutans),growth inhibition (lactobacillus bulgaricus),growth inhibition (salmonella typhi),growth inhibition (Escherichia coli),growth inhibition (Streptococcus pneumonia),growth inhibition (clostridium butyricum),growth inhibition (saccharomyces cerevisiae)
C/C=C/C=C/C(=O)[O-].[K+] [potassium sorbate],875,,,,,,,
OC[C@@H](O)[C@H](O)[C@@H](O)CO [xylitol],,reduce oral bacterial flora,inhibiting the growth,inhibiting the growth,inhibiting the growth,inhibiting the growth,inhibiting the growth,inhibiting the growth
